Assays:
[1] = tested on: mouse; conditions: Carcinogenicity, other, Oral, Feed, dose end: 2 year, group: systemic
[2] = tested on: rat; conditions: Combined chronic toxicity/carcinogenicity, fischer, Oral, Feed, dose end: 105 week, group: systemic
[3] = tested on: rat; conditions: Prenatal developmental toxicity study, fischer, Oral, Gavage/Intubation, dose end: 15 GD
[4] = tested on: mouse; conditions: Subchronic oral toxicity in rodents, b6c3f1, Feed, dose end: 13 week, group: systemic, systemic / in life observation / body weight / body weight gain
[5] = tested on: rat; conditions: Combined chronic toxicity/carcinogenicity; fischer; Oral; Feed; dose end: 2 year; group: systemic; systemic / in life observation / body weight / body weight + systemic / in life observation / body weight / body weight gain
[6] = tested on: rat; conditions: Multigenerational reproductive toxicity study, fischer, Oral, Feed, dose end: 3 generation
[7] = tested on: rat; conditions: Subchronic oral toxicity in rodents, fischer, Feed, dose end: 13 week, group: systemic
[8] = tested on: mouse; conditions: Carcinogenicity; b6c3f1; Oral; Feed; dose end: 2 year; group: systemic; systemic / in life observation / body weight / body weight
[9] = tested on: rabbit; conditions: Prenatal developmental toxicity study, new zealand white, Oral, Gavage/Intubation, dose end: 28 GD
[10] = tested on: rat; conditions: Subchronic oral toxicity in rodents, fischer, Gavage/Intubation, dose end: 13 week, group: systemic
[11] = tested on: mouse; conditions: Subchronic oral toxicity in rodents, b6c3f1, Gavage/Intubation, dose end: 13 week, group: systemic
[12] = tested on: rat; conditions: Carcinogenicity, fischer, Oral, Gavage/Intubation, dose end: 103 week, group: systemic
[13] = tested on: rat; conditions: Subchronic oral toxicity in rodents, other, Feed, dose end: 6 week, group: systemic, systemic / in life observation / body weight / body weight
[14] = tested on: mouse; conditions: Carcinogenicity; b6c3f1; Oral; Feed; dose end: 78 week; group: systemic; systemic / in life observation / mortality / mortality
[15] = tested on: dog; conditions: Multigenerational reproductive toxicity study; beagle; Oral; Feed; dose end: 3 generation; group: reproductive; reproductive / reproductive performance / estrous cycle / abnormal
[16] = tested on: mouse; conditions: Multigenerational reproductive toxicity study, other, Oral, Feed, dose end: 5 generation
[17] = tested on: rat; conditions: Multigenerational reproductive toxicity study, sprague dawley, Oral, Feed, dose end: 2 generation
[18] = tested on: rat; conditions: Carcinogenicity, other, Oral, Feed, dose end: 78 week, group: systemic
[19] = tested on: mouse; conditions: Subchronic oral toxicity in rodents, b6c3f1, Feed, dose end: 6 week, group: systemic
[20] = tested on: rat; conditions: Multigenerational reproductive toxicity study, sprague dawley, Oral, Feed, dose end: 2 generation; remark: listed apart in the source
[21] = systemic / clinical chemistry / alkaline phosphatase (alp/alk) / alkaline phosphatase (alp/alk) + systemic / clinical chemistry / chloride…
[22] = systemic / clinical chemistry / chloride / chloride + systemic / clinical chemistry / potassium / potassium + systemic / clinical chemistry…
[23] = systemic / in life observation / body weight / body weight + systemic / organ weight / kidney / relative to body weight + systemic / …
[24] = group: developmental, developmental / developmental malformation / general / crown-rump length + developmental / offspring survival late / viability index / …
[25] = group: maternal, systemic / in life observation / clinical signs / blood around eyes and nose + systemic / in life observation / clinical signs / emaciation…
[26] = group: offspring, systemic / in life observation / body weight / offspring (pup) weight
[27] = group: offspring, systemic / in life observation / body weight / offspring (pup) weight + systemic / organ weight / kidney / absolute
[28] = group: parental, systemic / in life observation / body weight / body weight + systemic / pathology microscopic / kidney / casts + systemic / pathology …
[29] = systemic / in life observation / body weight / body weight gain
[30] = group: developmental, systemic / in life observation / body weight / fetal weight
[31] = group: maternal, systemic / in life observation / body weight / body weight gain + systemic / in life observation / clinical signs / alopecia + systemic / in…
[32] = systemic / clinical chemistry / alkaline phosphatase (alp/alk) / alkaline phosphatase (alp/alk) + systemic / clinical chemistry / gamma …
[33] = systemic / organ weight / spleen / absolute + systemic / organ weight / spleen / relative to body weight
[34] = systemic / in life observation / body weight / body weight + systemic / in life observation / mortality / mortality + systemic / organ …
[35] = systemic / organ weight / heart / absolute + systemic / organ weight / heart / relative to body weight
[36] = systemic / in life observation / body weight / body weight
[37] = systemic / in life observation / body weight / body weight + systemic / pathology microscopic / liver / neoplastic nodule + systemic / in …
[38] = group: offspring, systemic / pathology microscopic / blood / leukemia + systemic / pathology microscopic / blood vessel / [other] + systemic / pathology …
[39] = group: parental, systemic / pathology microscopic / blood vessel / [other] + systemic / pathology microscopic / lung / carcinoma + systemic / hematology / …
[40] = group: offspring, systemic / in life observation / clinical signs / [other]
[41] = group: parental, systemic / organ weight / liver / relative to body weight
[42] = systemic / in life observation / clinical signs / abdominogenital staining + systemic / in life observation / clinical signs / hunched …
[43] = systemic / in life observation / body weight / body weight gain + systemic / in life observation / mortality / mortality
[44] = group: offspring, developmental / offspring survival late / viability index / viability index + developmental / developmental landmark / preputial separation…
[45] = group: parental, systemic / organ weight / adrenal gland / relative to body weight + systemic / organ weight / kidney / relative to body weight + systemic / …

With `c1ccc(-c2ccccc2)cc1` [Biphenyl] the LOAEL [1, 21] was greater than 1050 mg/kg/day, the NOAEL [1, 21] was no less than 1050 mg/kg/day and the LEL [1, 22] was 97 mg/kg/day. It also gave an NEL [1, 22] of less than 97 mg/kg/day, an LOAEL [2, 23] greater than 225 mg/kg/day and an NEL [2, 23] of 25 mg/kg/day. It also gave an NOAEL [2, 23] of no less than 225 mg/kg/day and an LEL ([2]; systemic / organ weight / kidney / relative to body weight) of 75 mg/kg/day.
`O=C1CCCCCN1` [Caprolactam] showed an LEL [3, 24] of 1000 mg/kg/day, an LOAEL [3, 24] greater than 1000 mg/kg/day and an NEL [3, 24] of 500 mg/kg/day. The NOAEL [3, 24] was no less than 1000 mg/kg/day, the LEL [3, 25] was 100 mg/kg/day and the LOAEL [3, 25] was greater than 1000 mg/kg/day. The NEL [3, 25] was less than 100 mg/kg/day, the NOAEL [3, 25] was no less than 1000 mg/kg/day and the LEL [4] was 750 mg/kg/day. The LOAEL [4] was 750 mg/kg/day, the NEL [4] was less than 750 mg/kg/day and the NOAEL [4] was less than 750 mg/kg/day. For the same compound, the LEL [5] was 188 mg/kg/day, the LOAEL [5] was 188 mg/kg/day and the NEL [5] was less than 188 mg/kg/day. For the same compound, the NOAEL [5] was less than 188 mg/kg/day, the LEL [6, 26] was 250 mg/kg/day and the NEL [6, 26] was 50 mg/kg/day. For the same compound, the LOAEL [6, 27] was greater than 500 mg/kg/day, the NOAEL [6, 27] was no less than 500 mg/kg/day and the NEL ([6]; group: parental, systemic / in life observation / body weight / body weight) was 250 mg/kg/day. The LEL [6, 28] was 500 mg/kg/day, the LOAEL [6, 28] was greater than 500 mg/kg/day and the NOAEL [6, 28] was no less than 500 mg/kg/day. The LEL [7, 29] was 31 mg/kg/day, the LOAEL [7, 29] was 125 mg/kg/day and the NEL [7, 29] was less than 31 mg/kg/day. It also gave an NOAEL ([7]; systemic / in life observation / body weight / body weight gain + systemic / in life observation / food consumption / food consumption) of 63 mg/kg/day, an LEL [8] of 1120 mg/kg/day and an LOAEL [8] of 1120 mg/kg/day. It also gave an NEL [8] of less than 1120 mg/kg/day, an NOAEL [8] of less than 1120 mg/kg/day and an LEL [9, 30] of 150 mg/kg/day. The LOAEL [9, 30] was greater than 250 mg/kg/day, the NEL [9, 30] was 50 mg/kg/day and the NOAEL [9, 30] was no less than 250 mg/kg/day. It also gave an LEL ([9]; group: maternal, systemic / in life observation / body weight / body weight gain) of 150 mg/kg/day, an LOAEL [9, 31] greater than 250 mg/kg/day and an NEL [9, 31] of 50 mg/kg/day. It also gave an NOAEL [9, 31] of no less than 250 mg/kg/day.
`Clc1ccccc1` [Chlorobenzene] showed an LOAEL [10, 32] greater than 750 mg/kg/day, an NOAEL [10, 32] of no less than 750 mg/kg/day and an LEL [10, 33] of 60 mg/kg/day. The NEL [10, 33] was less than 60 mg/kg/day, the LOAEL [11, 34] was greater than 750 mg/kg/day and the NOAEL [11, 34] was no less than 750 mg/kg/day. For the same compound, the LEL [11, 35] was 60 mg/kg/day, the NEL [11, 35] was less than 60 mg/kg/day and the LEL [12, 36] was 60 mg/kg/day. The NEL [12, 36] was less than 60 mg/kg/day, the LOAEL [12, 37] was greater than 120 mg/kg/day and the NOAEL [12, 37] was no less than 120 mg/kg/day.
Compound `Clc1ccc(C(c2ccc(Cl)cc2)C(Cl)(Cl)Cl)cc1` [p,p'-DDT] has an LEL [13] of 28.1 mg/kg/day, an LOAEL [13] of 28.1 mg/kg/day and an NEL [13] of 15.8 mg/kg/day. For the same compound, the NOAEL [13] was 15.8 mg/kg/day, the LEL [14] was 26.2 mg/kg/day and the LOAEL [14] was greater than 26.2 mg/kg/day. The NEL [14] was 13.1 mg/kg/day, the NOAEL [14] was no less than 26.2 mg/kg/day and the LEL [15] was 1 mg/kg/day. For the same compound, the LOAEL [15] was greater than 10 mg/kg/day, the NEL [15] was less than 1 mg/kg/day and the NOAEL [15] was no less than 10 mg/kg/day. It also gave an LEL [16, 38] of 0.55 mg/kg/day, an LOAEL [16, 38] greater than 0.55 mg/kg/day and an NEL [16, 38] of less than 0.55 mg/kg/day. It also gave an NOAEL [16, 38] of no less than 0.55 mg/kg/day, an LEL [16, 39] of 0.55 mg/kg/day and an LOAEL [16, 39] greater than 0.55 mg/kg/day. The NEL [16, 39] was less than 0.55 mg/kg/day, the NOAEL [16, 39] was no less than 0.55 mg/kg/day and the LEL [17, 40] was 10 mg/kg/day. For the same compound, the LOAEL [17, 40] was greater than 10 mg/kg/day, the NEL [17, 40] was 1 mg/kg/day and the NOAEL [17, 40] was no less than 10 mg/kg/day. It also gave an LEL [17, 41] of 10 mg/kg/day, an LOAEL [17, 41] greater than 10 mg/kg/day and an NEL [17, 41] of 1 mg/kg/day. For the same compound, the NOAEL [17, 41] was no less than 10 mg/kg/day, the LOAEL [18, 36] was 21 mg/kg/day and the NOAEL ([18]; systemic / in life observation / body weight / body weight + systemic / in life observation / clinical signs / abdominogenital staining + …) was 10.5 mg/kg/day. The LEL [18, 42] was 10.5 mg/kg/day, the NEL [18, 42] was less than 10.5 mg/kg/day and the LEL [19, 29] was 2.7 mg/kg/day. It also gave an NEL [19, 29] of less than 2.7 mg/kg/day, an LOAEL [19, 43] greater than 26.7 mg/kg/day and an NOAEL [19, 43] of no less than 26.7 mg/kg/day. For the same compound, the LEL [20, 44] was 25 mg/kg/day, the LOAEL [20, 44] was greater than 25 mg/kg/day and the NEL [20, 44] was 3.44 mg/kg/day. It also gave an NOAEL [20, 44] of no less than 25 mg/kg/day, an LOAEL [20, 45] greater than 25 mg/kg/day and an NEL [20, 45] of 0.343 mg/kg/day. It also gave an NOAEL [20, 45] of no less than 25 mg/kg/day and an LEL ([20]; group: parental, systemic / organ weight / liver / absolute + systemic / organ weight / liver / relative to body weight + systemic / pathology microscopic / …) of 3.44 mg/kg/day.

From EPA's ToxRefDB 2
